# Test results published in US7514448B2, “Azaindoles useful as inhibitors of rock and other protein kinases” (Vertex Pharmaceuticals Incorporated, priority 2004, dated 2009).
# Like-named read-outs stand apart in the source and are kept apart here.
# What was measured:
# ROCK = ROCK (Homo sapiens, UniProt Q13464); assay: ROCK radioactive assay ("33P"); format: biochemical
# Excerpt: If more than one value of Ki has been determined, the average Ki is indicated. If no value is indicated, then the Ki was not determined.
# PKA = PKA (Homo sapiens, UniProt P17612); assay: PKA inhibition assay, coupled enzyme; format: biochemical; conditions: average Ki if more than one determined
# Protocol: Compounds were screened for their ability to inhibit PKA using a standard coupled enzyme assay (Fox et al., Protein Sci, 1998, 7, 2249). Assays were carried out in a mixture of 100 mM HEPES (pH 7.5), 10 mM MgCl2, 25 mM NaCl, 1 mM DTT and 3% DMSO. Final substrate concentrations in the assay were 50 μM ATP (Sigma Chemicals) and 80 μM peptide (Kemptide, American Peptide, Sunnyvale, Calif.). Assays were carried out at 30° C. and 18 nM PKA. Final concentrations of the components of the coupled enzyme system were 2.5 mM phosphoenolpyruvate, 300 μM NADH, 30 μg/ml pyruvate kinase and 10 μg/ml lactate dehydrogenase.
# An assay stock buffer solution was prepared containing all of the reagents listed above, with the exception of ATP, and the test compound of the present invention. […] The plate was preincubated for 10 minutes at 30° C. and the reaction initiated by addition of 5 μl of ATP (final concentration 50 μM). Initial reaction rates were determined with a Molecular Devices SpectraMax Plus plate reader over a 15 minute time course. IC50 and Ki data were calculated from non-linear regression analysis using the Prism software package (GraphPad Prism version 3.0a for Macintosh, GraphPad Software, San Diego Calif., USA).
# [1] = radioactive assay, average Ki if more than one determined, read-out: ROCK 33P Ki
# ROCK, sequence (Q13464 whole entry): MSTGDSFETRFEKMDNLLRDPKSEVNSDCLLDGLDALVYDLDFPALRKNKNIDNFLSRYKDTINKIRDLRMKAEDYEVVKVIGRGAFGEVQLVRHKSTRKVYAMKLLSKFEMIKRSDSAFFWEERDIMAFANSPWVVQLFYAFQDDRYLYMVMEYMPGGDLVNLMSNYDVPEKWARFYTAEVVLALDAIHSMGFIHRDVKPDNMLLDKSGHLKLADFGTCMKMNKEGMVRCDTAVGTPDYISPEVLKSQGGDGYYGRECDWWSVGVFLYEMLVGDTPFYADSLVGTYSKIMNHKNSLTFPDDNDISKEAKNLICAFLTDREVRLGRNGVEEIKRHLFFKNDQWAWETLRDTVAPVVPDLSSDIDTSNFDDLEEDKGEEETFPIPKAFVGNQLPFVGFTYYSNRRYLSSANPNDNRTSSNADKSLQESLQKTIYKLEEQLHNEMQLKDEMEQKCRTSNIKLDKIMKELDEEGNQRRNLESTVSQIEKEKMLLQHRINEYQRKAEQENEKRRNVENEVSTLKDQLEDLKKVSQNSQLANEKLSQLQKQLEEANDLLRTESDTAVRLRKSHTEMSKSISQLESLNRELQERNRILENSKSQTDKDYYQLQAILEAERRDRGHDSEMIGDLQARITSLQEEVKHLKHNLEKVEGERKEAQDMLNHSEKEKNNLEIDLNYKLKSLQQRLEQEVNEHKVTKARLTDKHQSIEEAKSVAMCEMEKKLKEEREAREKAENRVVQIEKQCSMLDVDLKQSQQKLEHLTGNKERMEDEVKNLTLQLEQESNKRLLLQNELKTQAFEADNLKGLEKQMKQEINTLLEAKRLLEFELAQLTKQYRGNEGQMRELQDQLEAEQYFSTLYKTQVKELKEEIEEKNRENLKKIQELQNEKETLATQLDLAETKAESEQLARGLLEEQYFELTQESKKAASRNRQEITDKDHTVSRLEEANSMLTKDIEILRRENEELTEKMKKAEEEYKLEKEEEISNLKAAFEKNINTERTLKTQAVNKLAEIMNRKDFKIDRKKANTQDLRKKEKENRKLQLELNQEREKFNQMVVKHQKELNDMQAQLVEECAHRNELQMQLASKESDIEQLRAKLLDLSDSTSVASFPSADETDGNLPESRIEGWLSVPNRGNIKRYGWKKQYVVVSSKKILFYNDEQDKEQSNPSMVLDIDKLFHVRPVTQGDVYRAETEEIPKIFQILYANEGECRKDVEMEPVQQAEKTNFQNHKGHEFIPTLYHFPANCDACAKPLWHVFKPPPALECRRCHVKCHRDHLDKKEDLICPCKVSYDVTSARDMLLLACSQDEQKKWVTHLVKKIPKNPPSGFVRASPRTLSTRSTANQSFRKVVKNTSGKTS
SMILES,Ki (ROCK; [1]),Ki (PKA),Ki (ROCK)
O=C(Nc1nc(-c2c[nH]c3ncccc23)cs1)[C@H](O)c1ccccc1 [II-210],< 500 nM,< 500 nM,
C[C@H](NS(C)(=O)=O)C(=O)Nc1nc(-c2c[nH]c3ncccc23)cs1 [II-222],< 500 nM,< 500 nM,
O=C(Nc1nc(-c2c[nH]c3ncccc23)cs1)C1CCOCC1 [II-175],< 500 nM,< 500 nM,
CS(=O)(=O)N[C@H](COCc1ccccc1)C(=O)Nc1nc(-c2c[nH]c3ncccc23)cs1 [II-232],< 500 nM,< 500 nM,
O=C1NCC(C(=O)Nc2nc(-c3c[nH]c4ncccc34)cs2)N1 (stereo not shown) [II-147],< 500 nM,< 500 nM,
O=C(Cc1cccc(NS(=O)(=O)CCCN2CCOCC2)c1)Nc1nc(-c2c[nH]c3ncccc23)cs1 [II-169],< 500 nM,< 500 nM,
O=C(Cc1cccc(O)c1)Nc1nc(-c2c[nH]c3ncccc23)cs1 [I-12],,< 500 nM,
COc1ccc(CC(=O)Nc2nc(-c3c[nH]c4ncc(F)cc34)cs2)c(Cl)c1 [II-150],< 500 nM,< 500 nM,
O=C(Nc1nc(-c2c[nH]c3ncccc23)cs1)C1CCNCC1 [II-174],< 500 nM,500 to 5000 nM,
CN1CCN(CCCS(=O)(=O)Nc2cccc(CC(=O)Nc3nc(-c4c[nH]c5ncccc45)cs3)c2)CC1 [II-167],< 500 nM,< 500 nM,
CN1CCN(CCCNc2nc(-c3c[nH]c4ncccc34)cs2)CC1 [II-198],500 to 5000 nM,500 to 5000 nM,
N[C@@H](C(=O)Nc1nc(-c2c[nH]c3ncccc23)cs1)c1ccccc1 [II-214],< 500 nM,< 500 nM,
CS(=O)(=O)Nc1ccc(F)c(CC(=O)Nc2nc(-c3c[nH]c4ncc(F)cc34)cs2)c1 [II-151],< 500 nM,< 500 nM,
O=C(Cc1ccccc1)Nc1nc(-c2c[nH]c3ncc(O)cc23)cs1 [II-131],< 500 nM,< 500 nM,
O=C1CCC(C(=O)Nc2nc(-c3c[nH]c4ncccc34)cs2)N1 (stereo not shown) [II-153],< 500 nM,500 to 5000 nM,
NCCC(C(=O)Nc1nc(-c2c[nH]c3ncccc23)cs1)c1ccc(F)cc1 (stereo not shown) [II-190],< 500 nM,< 500 nM,
CS(=O)(=O)N1CCC[C@@H]1C(=O)Nc1nc(-c2c[nH]c3ncccc23)cs1 [II-230],< 500 nM,< 500 nM,
CS(=O)(=O)Nc1cccc(CC(=O)Nc2nc(-c3c[nH]c4ncc(O)cc34)cs2)c1 [II-132],< 500 nM,500 to 5000 nM,
O=C(Nc1nc(-c2c[nH]c3ncccc23)cs1)[C@@H](O)c1ccccc1 [II-207],< 500 nM,< 500 nM,
CC(CN(C)C)NC(=O)Nc1nc(-c2c[nH]c3ncccc23)cs1 (stereo not shown) [II-242],500 to 5000 nM,500 to 5000 nM,
O=C(Nc1nc(-c2c[nH]c3ncccc23)cs1)N1CCCC1 [II-241],500 to 5000 nM,500 to 5000 nM,
Nc1cccc(C(O)C(=O)Nc2nc(-c3c[nH]c4ncccc34)cs2)c1 (stereo not shown) [II-212],< 500 nM,< 500 nM,
c1cnc2[nH]cc(-c3csc(NCC4CCCO4)n3)c2c1 (stereo not shown) [II-200],500 to 5000 nM,500 to 5000 nM,

SMILES,Ki (ROCK; [1]),Ki (PKA),Ki (ROCK)
O=C(N[C@H](CO)c1ccccc1)c1nc(-c2c[nH]c3ncccc23)cs1 [II-184],< 500 nM,< 500 nM,
CC(C)[C@@H](NS(C)(=O)=O)C(=O)Nc1nc(-c2c[nH]c3ncccc23)cs1 [II-227],< 500 nM,< 500 nM,
O=C(Cc1ccccn1)Nc1nc(-c2c[nH]c3ncccc23)cs1 [II-215],< 500 nM,< 500 nM,
CC(=O)NCC(=O)Nc1nc(-c2c[nH]c3ncccc23)cs1 [II-149],< 500 nM,500 to 5000 nM,
CN1CCN(CCCN(C(=O)Cc2cccc(NS(C)(=O)=O)c2)c2nc(-c3c[nH]c4ncccc34)cs2)CC1 [II-203],< 500 nM,< 500 nM,
COc1cccc(CC(=O)N(CCCN2CCN(C)CC2)c2nc(-c3c[nH]c4ncccc34)cs2)c1 [II-202],< 500 nM,< 500 nM,
CC(C)C(CO)NC(=O)c1nc(-c2c[nH]c3ncccc23)cs1 (stereo not shown) [II-183],< 500 nM,500 to 5000 nM,
O=C(Nc1nc(-c2c[nH]c3ncccc23)cs1)C1CCOC1 (stereo not shown) [II-172],< 500 nM,< 500 nM,
N[C@H](Cc1ccccc1)C(=O)Nc1nc(-c2c[nH]c3ncccc23)cs1 [II-177],< 500 nM,< 500 nM,
O=C(CNCc1ccccc1)Nc1nc(-c2c[nH]c3ncccc23)cs1 [II-188],< 500 nM,< 500 nM,
CCS(=O)(=O)C(C)C(=O)Nc1nc(-c2c[nH]c3ncccc23)cs1 (stereo not shown) [II-221],< 500 nM,< 500 nM,
COc1cccc(CC(=O)Nc2nc(-c3c[nH]c4ncccc34)cs2)c1 [I-2],,< 500 nM,
CC(C)C[C@H](N)C(=O)Nc1nc(-c2c[nH]c3ncccc23)cs1 [II-166],< 500 nM,< 500 nM,
N#CC1(C(=O)Nc2nc(-c3c[nH]c4ncccc34)cs2)CC1 [II-133],< 500 nM,< 500 nM,
O=C(N[C@@H](CO)c1ccccc1)c1nc(-c2c[nH]c3ncccc23)cs1 [II-185],< 500 nM,500 to 5000 nM,
CC(C)C(O)C(=O)Nc1nc(-c2c[nH]c3ncccc23)cs1 (stereo not shown) [II-159],< 500 nM,< 500 nM,
CC(=O)N(CCCN1CCN(C)CC1)c1nc(-c2c[nH]c3ncccc23)cs1 [II-204],< 500 nM,500 to 5000 nM,
CC(O)C(=O)Nc1nc(-c2c[nH]c3ncccc23)cs1 (stereo not shown) [II-143],< 500 nM,500 to 5000 nM,
NCC(=O)Nc1nc(-c2c[nH]c3ncccc23)cs1 [II-165],< 500 nM,< 500 nM,
CN(C)S(=O)(=O)Nc1cccc(CC(=O)Nc2nc(-c3c[nH]c4ncccc34)cs2)c1 [II-193],< 500 nM,< 500 nM,
CC(=O)NCCC(=O)Nc1nc(-c2c[nH]c3ncccc23)cs1 [II-164],< 500 nM,500 to 5000 nM,
O=C(Nc1nc(-c2c[nH]c3ncccc23)cs1)[C@@H]1CCCN1 [II-171],< 500 nM,< 500 nM,
O=C(Nc1nc(-c2c[nH]c3ncccc23)cs1)NC1CCC(C(=O)O)CC1 (stereo not shown) [II-239],< 500 nM,500 to 5000 nM,

SMILES,Ki (ROCK; [1]),Ki (PKA),Ki (ROCK)
CC(=O)N[C@@H](C)C(=O)Nc1nc(-c2c[nH]c3ncccc23)cs1 [II-145],< 500 nM,500 to 5000 nM,
CN1CCN(C(=O)Nc2nc(-c3c[nH]c4ncccc34)cs2)CC1 [II-237],500 to 5000 nM,500 to 5000 nM,
O=C(Nc1nc(-c2c[nH]c3ncccc23)cs1)C1(O)CC1 [II-158],< 500 nM,< 500 nM,
CS(=O)(=O)Nc1cccc(CC(=O)Nc2nc(-c3c[nH]c4c3ccc[n+]4[O-])cs2)c1 [II-216],,500 to 5000 nM,< 500 nM
CS(=O)(=O)N1CCC[C@H]1C(=O)Nc1nc(-c2c[nH]c3ncccc23)cs1 [II-229],< 500 nM,< 500 nM,
O=C(Cc1cccnc1)Nc1nc(-c2c[nH]c3ncc(F)cc23)cs1 [II-206],< 500 nM,< 500 nM,
CC(C)CC(=O)C(=O)Nc1nc(-c2c[nH]c3ncccc23)cs1 [II-160],< 500 nM,< 500 nM,
C[C@@H](CO)NC(=O)c1nc(-c2c[nH]c3ncccc23)cs1 [II-182],< 500 nM,500 to 5000 nM,
O=C(Nc1nc(-c2c[nH]c3ncccc23)cs1)C1CCCNC1 (stereo not shown) [II-173],< 500 nM,< 500 nM,
CN1CCN(CCCOc2cccc(CC(=O)Nc3nc(-c4c[nH]c5ncc(F)cc45)cs3)c2)CC1 [II-137],< 500 nM,500 to 5000 nM,
O=C(Cc1cccnc1)Nc1nc(-c2c[nH]c3ncccc23)cs1 [II-205],< 500 nM,< 500 nM,
O=C(Cc1cccc(OCCCC2CCNCC2)c1)Nc1nc(-c2c[nH]c3ncc(F)cc23)cs1 [II-135],< 500 nM,< 500 nM,
O=C(Nc1nc(-c2c[nH]c3ncccc23)cs1)C(O)c1ccc(F)cc1F (stereo not shown) [II-209],< 500 nM,< 500 nM,
CCCC(C(=O)Nc1nc(-c2c[nH]c3ncccc23)cs1)S(=O)(=O)CC (stereo not shown) [II-225],< 500 nM,500 to 5000 nM,
CN[C@@H](Cc1ccccc1)C(=O)Nc1nc(-c2c[nH]c3ncccc23)cs1 [II-178],< 500 nM,< 500 nM,
CS(=O)(=O)Nc1cccc(C(N)C(=O)Nc2nc(-c3c[nH]c4ncccc34)cs2)c1 (stereo not shown) [II-219],< 500 nM,< 500 nM,
O=C(NC1CCN(Cc2ccccc2)C1)c1nc(-c2c[nH]c3ncccc23)cs1 (stereo not shown) [II-186],< 500 nM,500 to 5000 nM,
O=C(CO)Nc1nc(-c2c[nH]c3ncccc23)cs1 [II-157],< 500 nM,500 to 5000 nM,
O=C(Nc1nc(-c2c[nH]c3ncccc23)cs1)N1CCNCC1 [II-243],500 to 5000 nM,500 to 5000 nM,
O=C(c1nc(-c2c[nH]c3ncccc23)cs1)N1CCNCC1 [II-181],< 500 nM,< 500 nM,
O=C(NCc1cccc(S(=O)(=O)N2CCOCC2)c1)c1csc(-c2c[nH]c3ncccc23)c1 [II-130],< 500 nM,500 to 5000 nM,
N[C@@H](Cc1ccccc1)C(=O)Nc1nc(-c2c[nH]c3ncccc23)cs1 [II-176],< 500 nM,< 500 nM,
CN(C)C(=O)Nc1nc(-c2c[nH]c3ncccc23)cs1 [II-240],500 to 5000 nM,500 to 5000 nM,
